Assay results reported in patent US20250059172A1, “INDAZOLE COMPOUND AND PHARMACEUTICAL” (NIPPON SHINYAKU CO., LTD., priority 2021, published 2025).
Counter-ions that a name gives are not always drawn.

Tests used:
[1] = biological target: human mPGES-1 (Homo sapiens (Human), UniProt O14684); experiment: mPGES-1 inhibitory activity test; assay type: biochemical; conditions: for IC50: microsomes of CHO-K1 cells expressing human mPGES-1, PGH2 1 μM, PGE2 by HTRF, read-out: mPGES-1 inhibition (IC50 nM); for inhibition at 0.01 µM: 10 nM test compound; for inhibition at 0.1 µM: 100 nM test compound
human mPGES-1, sequence (O14684 whole entry): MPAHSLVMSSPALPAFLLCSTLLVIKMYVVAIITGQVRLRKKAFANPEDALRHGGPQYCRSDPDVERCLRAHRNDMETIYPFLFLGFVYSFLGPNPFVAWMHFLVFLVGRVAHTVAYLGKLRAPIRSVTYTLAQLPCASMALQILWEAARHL
Method: mPGES-1 microsomal specimens were prepared by transiently transfecting CHO-K1 cells (DS Pharma Biomedical Co. Ltd) with a plasmid encoding human mPGES-1 cDNA using FuGENE 6 Transfection Reagent (Promega). The prepared mPGES-1 microsome specimens were diluted in potassium phosphate buffer of pH 7.4 comprising 2.5 mM reduced glutathione (Sigma-Aldrich), DMSO solution of a test compound or DMSO was added to a final concentration of 1% of DMSO, and then incubated at 4° C. for 20 minutes. The enzymatic reaction was then initiated by adding a solution of PGH2 (Cayman chemical) substrate of a final concentration 1 μM and incubated at 4° C. for 60 seconds. The reaction was terminated by adding a solution of ferric chloride (STREM CHEMICALS) and citric acid (Wako Pure Chemical Industries) salt to a final concentration of 5 mg/mL and 250 mM, respectively. The formed PGE2 was quantified using the HTRF kit (Cisbio International). Solutions without the test compound were used as positive controls, and solutions without the test compound and microsomal specimens were used as negative controls. 100% activity was defined as production of PGE2 in the positive control minus that in the negative control. The percentage inhibition of production of PGE2 at final concentrations of 10 nM and 100 nM of the test compound was then calculated, or IC50 values were determined using standard methods.

[2] = system: human A549 cells; experiment: Inhibition test of PGE2 production using human A549 cells; assay type: cell-based; conditions: IL-1β stimulated A549 cells, 24 h, PGE2 by HTRF, read-out: A549 cell inhibition of PGE2 production IC50
Method: 100 μL of RPMI medium (Sigma) comprising 10% FBS and human A549 cells was seeded in a 96-well plate to […] cells per well, and incubated overnight. The medium was then removed and washed with phosphate-buffered saline, and added to a DMSO solution of the test compound or RPMI medium comprising 3% FBS with DMSO to a final concentration of 0.1% DMSO. After incubation for 60 minutes, IL-1P (5 ng/well, BioLegend) was added to the solution. After incubation at 37° C. for 24 h, PGE2 in the medium was quantified using the HTRF kit (Cisbio International) and PGF2a was also quantified using the EIA kit (Cayman chemical). Solutions without the test compound were used as positive controls, and solutions without the test compound and IL-1β were used as negative controls. 100% activity was defined as production of PGE2 and PGF2a in the positive control minus those in the negative control. IC50 values were then determined using standard methods.

CCCC(=O)NCc1ccc(Cl)c(C(=O)Nc2cccc3c2cnn3-c2ccc(C(F)(F)F)cc2)c1 [Example 43, 5-[(Butanoylamino)methyl]-2-chloro-N-{1-[4-(trifluoromethyl)phenyl]-1H-indazol-4-yl}benzamide]
IC50 [1]: 2.3 nM | IC50 [2]: 13.5 nM

O=C(Nc1cccc2c1cnn2-c1ccc(C(F)(F)F)cc1)c1cc(CNC(=O)C2CCCCC2)ccc1Cl [Example 31, 2-Chloro-5-{[(cyclohexylcarbonyl)amino]methyl}-N-{1-[4-(trifluoromethyl)phenyl]-1H-indazol-4-yl}benzamide]
IC50 [1]: 1.6 nM | IC50 [2]: 5.5 nM

COc1ccc(-n2ncc3c(NC(=O)c4cc(CNC(=O)C5(C(F)(F)F)CC5)ccc4Cl)cccc32)cn1 [Example 271, 2-Chloro-N-[1-(6-methoxypyridin-3-yl)-1H-indazol-4-yl]-5-[({[1-(trifluoromethyl)cyclopropyl]carbonyl}amino)methyl]benzamide]
inhibition at 0.01 µM [1]: 50% | inhibition at 0.1 µM [1]: 90% | IC50 [2]: 3 nM

CC(C)(C)C(=O)NCc1ccc(Cl)c(C(=O)Nc2cccc3c2cnn3-c2nccs2)c1 [Example 80, 2-Chloro-5-{[(2,2-dimethylpropanoyl)amino]methyl}-N-[1-(1,3-thiazol-2-yl)-1H-indazol-4-yl]benzamide]
IC50 [1]: 1.1 nM | IC50 [2]: 5.2 nM

COc1ccc(-n2ncc3c(NC(=O)c4cc(CNC(=O)C5(O)CC5)ccc4Cl)cccc32)cc1C(F)(F)F [Example 264, 2-Chloro-5-({[(1-hydroxycyclopropyl)carbonyl]amino}methyl)-N-{1-[4-methoxy-3-(trifluoromethyl)phenyl]-1H-indazol-4-yl}benzamide]
inhibition at 0.01 µM [1]: 94% | inhibition at 0.1 µM [1]: 97% | IC50 [2]: 5.1 nM

Cn1ncc2c(NC(=O)c3cc(CNC(=O)C(C)(C)C)ccc3Cl)cccc21 [Example 111, 2-Chloro-5-{[(2,2-dimethylpropanoyl)amino]methyl}-N-(1-methyl-1H-indazol-4-yl)benzamide]
IC50 [1]: 5.5 nM | IC50 [2]: 40.6 nM

O=C(Nc1cccc2c1cnn2-c1cscn1)c1cc(CNC(=O)C2(C(F)(F)F)CC2)ccc1Cl [Example 189, 2-Chloro-N-[1-(1,3-thiazol-4-yl)-1H-indazol-4-yl]-5-[({[1-(trifluoromethyl)cyclopropyl]carbonyl}amino)methyl]benzamide]
inhibition at 0.01 µM [1]: 80% | IC50 [2]: 23.6 nM

COCc1cncc(-n2ncc3c(NC(=O)c4cc(CNC(=O)C(C)(C)C)ccc4Cl)cccc32)c1 [Example 78, 2-Chloro-5-{[(2,2-dimethylpropanoyl)amino]methyl}-N-{1-[5-(methoxymethyl)pyridin-3-yl]-1H-indazol-4-yl}benzamide hydrochloride]
IC50 [1]: 10.4 nM | IC50 [2]: 9.8 nM

CC(C)(CO)C(=O)NCc1ccc(Cl)c(C(=O)Nc2cccc3c2cnn3-c2cscn2)c1 [Example 192, 2-Chloro-5-{[(3-hydroxy-2,2-dimethylpropanoyl)amino]methyl}-N-[1-(1,3-thiazol-4-yl)-1H-indazol-4-yl]benzamide]
inhibition at 0.01 µM [1]: 70% | inhibition at 0.1 µM [1]: 90% | IC50 [2]: 31.4 nM

CC(C)(CO)C(=O)NCc1ccc(Cl)c(C(=O)Nc2cccc3c2cnn3-c2ccc(C(F)(F)F)cc2)c1 [Example 28, 2-Chloro-5-{[(3-hydroxy-2,2-dimethylpropanoyl)amino]methyl}-N-{1-[4-(trifluoromethyl)phenyl]-1H-indazol-4-yl}benzamide]
IC50 [1]: 1.9 nM | IC50 [2]: 5.8 nM

O=C(Nc1cccc2c1cnn2-c1cccnc1)c1cc(CNC(=O)C2CC2)ccc1Cl [Example 4, 2-Chloro-5-{[(cyclopropylcarbonyl)amino]methyl}-N-[1-(pyridin-3-yl)-1H-indazol-4-yl]benzamide hydrochloride]
IC50 [1]: 18.8 nM

CC#CC(=O)NCc1ccc(Cl)c(C(=O)Nc2cccc3c2cnn3-c2ccc(C(F)(F)F)cc2)c1 [Example 42, 5-[(2-Butynoylamino)methyl]-2-chloro-N-{1-[4-(trifluoromethyl)phenyl]-1H-indazol-4-yl}benzamide]
IC50 [1]: 391 nM
